# Where two headings read alike, the source gives them in different places. Numbered stars: 1 amine (or outer) side, 2 acyl side, 3 side chain; on linkers, the order of the positions; unused ones are H or OH. Square brackets hold non-standard residues; d marks the D form. Side chains are listed from the residue outwards. Peptide text beside a SMILES is read from it. * marks the point of attachment. C18 diacid = O=C(O)CCCCCCCCCCCCCCCCC(=O)*; γGlu = O=C(O)[C@H](CCC(=O)[*:2])N[*:1]; Palmitoyl = CCCCCCCCCCCCCCCC(=O)*; αMeF = C[C@](N)(Cc1ccccc1)C(=O)O; Myristoyl = CCCCCCCCCCCCCC(=O)*; αMeK = C[C@](N)(CCCCN)C(=O)O; Lauroyl = CCCCCCCCCCCC(=O)*; αMeS = C[C@](N)(CO)C(=O)O; AEEA = NCCOCCOCC(=O)O; Aib = CC(C)(N)C(=O)O
# Tests used:
# Format in all cases: cell-based
# [1] = target: T1, human glucose-dependent insulinotropic peptide receptor (GIPR) (Homo sapiens, UniProt P48546); assay: cAMP assay, human GIPR cells; conditions: Table 9, bis-lipidated peptides
# T1 construct: expressed in transfected cells; host or cells: HEK293 cells or CHO cells
# T1 sequence (P48546 22-466): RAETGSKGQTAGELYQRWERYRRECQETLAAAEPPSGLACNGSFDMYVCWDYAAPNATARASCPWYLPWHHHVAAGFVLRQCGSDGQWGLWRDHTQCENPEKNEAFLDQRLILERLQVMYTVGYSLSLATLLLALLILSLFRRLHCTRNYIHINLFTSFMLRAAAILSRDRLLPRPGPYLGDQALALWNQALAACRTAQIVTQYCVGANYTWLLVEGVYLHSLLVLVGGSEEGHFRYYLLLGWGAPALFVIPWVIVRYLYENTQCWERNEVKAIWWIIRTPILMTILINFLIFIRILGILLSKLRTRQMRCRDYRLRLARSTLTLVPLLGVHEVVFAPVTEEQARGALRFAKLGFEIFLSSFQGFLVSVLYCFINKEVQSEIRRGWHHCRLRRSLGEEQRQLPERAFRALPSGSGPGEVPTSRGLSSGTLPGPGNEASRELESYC
# Procedure: (§1) Sample dilutions are made in duplicate.
# (§2) A frozen cryo-vial of cells expressing the receptor of interest is thawed rapidly in a water-bath, transferred to pre-warmed assay buffer and spun at 240×g for 5 minutes. Cells are re-suspended in assay buffer at a batch-dependent optimized concentration (e.g. hGCGR cells at 2×10^5 cells/ml, hGLP-1R and hGIPR cells at 1×10^5 cells/ml).
# (§3) To this, 5 μL cell suspension is added and the plates incubated at room temperature for 30 minutes.
# (§4) cAMP levels are measured using a commercially available cAMP dynamic 2 HTRF kit (Cisbio, Cat #62AM4PEJ), following the two step protocol as per manufacturer's recommendations. In brief; anti-cAMP cryptate (donor fluorophore) and cAMP-d2 (acceptor fluorophore) are made up separately by diluting each 1/20 in conjugate & lysis buffer provided in the kit. 5 μL anti-cAMP cryptate is added to wells of the assay plate, and 5 μL cAMP-d2 is added to wells except non-specific binding (NSB) wells, to which conjugate and lysis buffer are added. […] EC50 values of the synthetic peptides determined in cAMP assays are then determined.
# (§5) Data is transformed to % Delta F as described in the manufacturer's guidelines and analyzed by 4-parameter logistic fit to determine EC50 values. […] To compare the balance of activities at the GLP-1R and GCGR between different peptides and across different conditions, these can be correlated, where the EC50's are related to those of comparator peptides.
# [2] = target: T2, human glucagon receptor (GCGR) (Homo sapiens, UniProt P47871); assay: cAMP assay, human GCGR cells; conditions: Table 9, bis-lipidated peptides
# T2 construct: expressed in transfected cells; host or cells: HEK293 cells or CHO cells
# Procedure: as §1, §2, §3, §4, §5
# [3] = target: T3, human GLP-1 receptor (GLP-1R) (Homo sapiens, UniProt P43220); assay: cAMP assay, human GLP-1R cells; conditions: cAMP activity
# T3 construct: expressed in transfected cells; host or cells: HEK293 cells or CHO cells
# In short: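 Peptide-stimulated cAMP measured by two-step HTRF after a 30 min room-temperature incubation with receptor-expressing cells (hGLP-1R, hGIPR at 1×10^5 cells/ml; hGCGR at 2×10^5 cells/ml). Duplicate dilutions; EC50 from 4-parameter logistic fit of % Delta F.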
# [4] = first replicate, read-out: Primary assay EC50 GIP-R (n1)
# [5] = second replicate, read-out: Primary assay EC50 GIP-R (n2)
# [6] = first replicate, read-out: Primary assay EC50 Gluc-R (n1)
# [7] = second replicate, read-out: Primary assay EC50 Gluc-R (n2)
# [8] = mean of n1 and n2, read-out: Mean pM GLP-1R
# [9] = second determination (n2), read-out: Primary assay EC50 GLP-1R n2
# T2 sequence (P47871 26-477): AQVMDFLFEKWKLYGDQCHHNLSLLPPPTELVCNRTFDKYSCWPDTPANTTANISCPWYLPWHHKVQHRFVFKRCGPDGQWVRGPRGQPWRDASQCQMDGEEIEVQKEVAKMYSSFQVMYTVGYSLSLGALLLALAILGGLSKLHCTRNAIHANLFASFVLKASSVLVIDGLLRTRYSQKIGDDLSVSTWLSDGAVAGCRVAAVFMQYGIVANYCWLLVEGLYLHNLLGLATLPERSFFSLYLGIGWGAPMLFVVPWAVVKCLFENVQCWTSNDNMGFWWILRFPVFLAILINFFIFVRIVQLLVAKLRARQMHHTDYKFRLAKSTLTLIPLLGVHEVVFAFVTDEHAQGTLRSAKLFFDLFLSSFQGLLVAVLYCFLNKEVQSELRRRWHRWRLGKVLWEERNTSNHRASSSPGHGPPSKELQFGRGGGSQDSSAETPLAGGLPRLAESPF
# T3 sequence (P43220 24-463): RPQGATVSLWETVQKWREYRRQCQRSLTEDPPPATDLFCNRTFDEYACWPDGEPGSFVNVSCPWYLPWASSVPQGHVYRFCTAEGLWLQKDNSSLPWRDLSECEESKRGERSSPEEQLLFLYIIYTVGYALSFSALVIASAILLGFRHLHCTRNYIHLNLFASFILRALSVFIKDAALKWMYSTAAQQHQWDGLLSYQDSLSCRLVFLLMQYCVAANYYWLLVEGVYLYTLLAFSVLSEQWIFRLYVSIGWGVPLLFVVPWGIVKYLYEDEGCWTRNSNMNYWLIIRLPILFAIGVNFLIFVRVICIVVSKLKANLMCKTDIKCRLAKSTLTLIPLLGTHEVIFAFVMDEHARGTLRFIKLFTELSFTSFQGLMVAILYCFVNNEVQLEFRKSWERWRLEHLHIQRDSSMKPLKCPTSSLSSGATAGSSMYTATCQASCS
"EC50 [1, 4]","EC50 [1, 5]","EC50 [2, 6]","EC50 [2, 7]","EC50 [3, 8]","EC50 [3, 9]",SMILES
≥ 21.5 nM,≥ 21.5 nM,≥ 21.5 nM,≥ 21.5 nM,,,CCCCCCCCCCCCCCCC(=O)N[C@@H](CCC(=O)NCCOCCOCC(=O)NCCOCCOCC(=O)NCCCC[C@H](NC(=O)[C@H](C)NC(=O)[C@@H](NC(=O)[C@](C)(Cc1ccccc1)NC(=O)[C@H](CCC(=O)O)NC(=O)[C@](C)(CCCCN)NC(=O)[C@H](C)NC(=O)[C@H](C)NC(=O)[C@H](CCC(=O)O)NC(=O)CNC(=O)[C@H](CCC(=O)O)NC(=O)[C@H](CC(C)C)NC(=O)[C@H](CCCCNC(=O)COCCOCCNC(=O)COCCOCCNC(=O)CC[C@H](NC(=O)CCCCCCCCCCCCCCC)C(=O)O)NC(=O)[C@H](CO)NC(=O)[C@](C)(CO)NC(=O)[C@@H](NC(=O)[C@H](CC(=O)O)NC(=O)[C@H](CO)NC(=O)[C@@H](NC(=O)[C@](C)(Cc1ccccc1)NC(=O)[C@H](CO)NC(=O)CNC(=O)[C@H](CCC(=O)O)NC(=O)C(C)(C)NC(=O)[C@@H](N)Cc1c[nH]cn1)[C@@H](C)O)C(C)C)[C@@H](C)CC)C(=O)N[C@H](C(=O)N[C@H](C(=O)N[C@@H](CCC(=O)O)C(=O)NCC(=O)NCC(N)=O)C(C)C)C(C)C)C(=O)O [compound 409] (H-H[Aib]EGS[αMeF]TSDV[αMeS]SK([AEEA-AEEA-γGlu-Palmitoyl])LEGEAA[αMeK]E[αMeF]IAK([AEEA-AEEA-γGlu-Palmitoyl])VVEGG-NH2; N-terminus assumed)
≥ 22.3 nM,≥ 22.3 nM,≥ 22.3 nM,≥ 22.3 nM,,,CCCCCCCCCCCC(=O)N[C@@H](CCC(=O)NCCOCCOCC(=O)NCCOCCOCC(=O)NCCCC[C@H](NC(=O)[C@H](CC(=O)O)NC(=O)[C@H](CO)NC(=O)[C@@H](NC(=O)[C@](C)(Cc1ccccc1)NC(=O)[C@H](CO)NC(=O)CNC(=O)[C@H](CCC(=O)O)NC(=O)C(C)(C)NC(=O)[C@@H](N)Cc1c[nH]cn1)[C@@H](C)O)C(=O)N[C@@H](CO)C(=O)N[C@@H](CO)C(=O)N[C@@H](Cc1ccc(O)cc1)C(=O)N[C@@H](CC(C)C)C(=O)N[C@@H](CCC(=O)O)C(=O)NCC(=O)N[C@@H](CCC(=O)O)C(=O)N[C@@H](C)C(=O)N[C@@H](C)C(=O)N[C@@](C)(CCCCN)C(=O)N[C@@H](CCC(=O)O)C(=O)N[C@@H](Cc1ccccc1)C(=O)N[C@H](C(=O)N[C@@H](C)C(=O)N[C@@H](Cc1c[nH]c2ccccc12)C(=O)N[C@@H](CCCCNC(=O)COCCOCCNC(=O)COCCOCCNC(=O)CC[C@H](NC(=O)CCCCCCCCCCC)C(=O)O)C(=O)N[C@H](C(=O)N[C@@H](CCC(=O)O)C(=O)NCC(=O)NCC(N)=O)C(C)C)[C@@H](C)CC)C(=O)O [compound 258] (H-H[Aib]EGS[αMeF]TSDK([AEEA-AEEA-γGlu-Lauroyl])SSYLEGEAA[αMeK]EFIAWK([AEEA-AEEA-γGlu-Lauroyl])VEGG-NH2)
,,,,118 pM,,CC[C@H](C)[C@H](NC(=O)[C@H](Cc1ccccc1)NC(=O)[C@H](CCC(=O)O)NC(=O)[C@H](CCCCN)NC(=O)[C@H](C)NC(=O)[C@H](C)NC(=O)[C@H](CCC(N)=O)NC(=O)CNC(=O)[C@H](CCC(=O)O)NC(=O)[C@H](CC(C)C)NC(=O)[C@H](Cc1ccc(O)cc1)NC(=O)[C@H](CO)NC(=O)C(C)(C)NC(=O)[C@@H](NC(=O)[C@H](CC(=O)O)NC(=O)[C@H](CO)NC(=O)[C@@H](NC(=O)[C@H](Cc1ccccc1)NC(=O)[C@@H](NC(=O)CNC(=O)[C@H](CCC(=O)O)NC(=O)C(C)(C)NC(=O)[C@@H](N)Cc1c[nH]cn1)[C@@H](C)O)[C@@H](C)O)C(C)C)C(=O)N[C@@H](C)C(=O)N[C@@H](Cc1c[nH]c2ccccc12)C(=O)N[C@@H](CC(C)C)C(=O)N[C@H](C(=O)N[C@@H](CCCCN)C(=O)NCC(=O)N[C@@H](CCCNC(=N)N)C(N)=O)C(C)C [compound 22] (H-H[Aib]EGTFTSDV[Aib]SYLEGQAAKEFIAWLVKGR-NH2; N-terminus assumed)

# Further lines, the compound ahead of its results:
SMILES,"EC50 [1, 4]","EC50 [1, 5]","EC50 [2, 6]","EC50 [2, 7]","EC50 [3, 8]","EC50 [3, 9]"
CCCCCCCCCCCCCC(=O)N[C@@H](CCC(=O)NCCOCCOCC(=O)NCCOCCOCC(=O)NCCCC[C@H](NC(=O)[C@H](C)NC(=O)[C@@H](NC(=O)[C@](C)(Cc1ccccc1)NC(=O)[C@H](CCC(=O)O)NC(=O)[C@](C)(CCCCN)NC(=O)[C@H](C)NC(=O)[C@H](C)NC(=O)[C@H](CCC(=O)O)NC(=O)CNC(=O)[C@H](CCC(=O)O)NC(=O)[C@H](CC(C)C)NC(=O)[C@H](CCCCNC(=O)COCCOCCNC(=O)COCCOCCNC(=O)CC[C@H](NC(=O)CCCCCCCCCCCCC)C(=O)O)NC(=O)[C@H](CO)NC(=O)[C@](C)(CO)NC(=O)[C@@H](NC(=O)[C@H](CC(=O)O)NC(=O)[C@H](CO)NC(=O)[C@@H](NC(=O)[C@](C)(Cc1ccccc1)NC(=O)[C@H](CO)NC(=O)CNC(=O)[C@H](CCC(=O)O)NC(=O)C(C)(C)NC(=O)[C@@H](N)Cc1c[nH]cn1)[C@@H](C)O)C(C)C)[C@@H](C)CC)C(=O)N[C@H](C(=O)N[C@H](C(=O)N[C@@H](CCC(=O)O)C(=O)NCC(=O)NCC(N)=O)C(C)C)C(C)C)C(=O)O [compound 408] (H-H[Aib]EGS[αMeF]TSDV[αMeS]SK([AEEA-AEEA-γGlu-Myristoyl])LEGEAA[αMeK]E[αMeF]IAK([AEEA-AEEA-γGlu-Myristoyl])VVEGG-NH2),≥ 21.5 nM,≥ 21.5 nM,≥ 21.5 nM,≥ 21.5 nM,,
CC[C@H](C)[C@H](NC(=O)[C@](C)(Cc1ccccc1)NC(=O)[C@H](CCC(=O)O)NC(=O)[C@](C)(CCCCN)NC(=O)[C@H](C)NC(=O)[C@H](C)NC(=O)[C@H](CCC(=O)O)NC(=O)CNC(=O)[C@H](CCC(=O)O)NC(=O)[C@H](CC(C)C)NC(=O)[C@](C)(Cc1ccccc1)NC(=O)[C@H](CO)NC(=O)[C@](C)(CO)NC(=O)[C@@H](NC(=O)[C@H](CC(=O)O)NC(=O)[C@H](CCC(=O)O)NC(=O)[C@@H](NC(=O)[C@](C)(Cc1ccccc1)NC(=O)[C@H](CO)NC(=O)CNC(=O)[C@H](CCC(=O)O)NC(=O)C(C)(C)NC(=O)[C@@H](N)Cc1c[nH]cn1)[C@@H](C)O)C(C)C)C(=O)N[C@@H](C)C(=O)N[C@@](C)(Cc1ccccc1)C(=O)N[C@H](C(=O)N[C@H](C(=O)N[C@@](C)(CCCCN)C(=O)NCC(=O)NCC(N)=O)C(C)C)C(C)C [compound 28] (H-H[Aib]EGS[αMeF]TEDV[αMeS]S[αMeF]LEGEAA[αMeK]E[αMeF]IA[αMeF]VV[αMeK]GG-NH2; N-terminus assumed),,,,,4620 pM,4700 pM
CC[C@H](C)[C@H](NC(=O)[C@](C)(Cc1ccccc1)NC(=O)[C@H](CCC(=O)O)NC(=O)[C@](C)(CCCCN)NC(=O)[C@H](C)NC(=O)[C@H](C)NC(=O)[C@H](CCC(=O)O)NC(=O)[C@H](CCCCNC(=O)COCCOCCNC(=O)COCCOCCNC(=O)CC[C@H](NC(=O)CCCCCCCCCCCCCCCCC(=O)O)C(=O)O)NC(=O)[C@H](CCC(=O)O)NC(=O)[C@H](CC(C)C)NC(=O)[C@](C)(Cc1ccccc1)NC(=O)[C@H](CO)NC(=O)[C@](C)(CO)NC(=O)[C@@H](NC(=O)[C@H](CC(=O)O)NC(=O)[C@H](CO)NC(=O)[C@@H](NC(=O)[C@](C)(Cc1ccccc1)NC(=O)[C@H](CO)NC(=O)CNC(=O)[C@H](CCC(=O)O)NC(=O)C(C)(C)NC(=O)[C@@H](N)Cc1c[nH]cn1)[C@@H](C)O)C(C)C)C(=O)N[C@@H](C)C(=O)N[C@@](C)(Cc1ccccc1)C(=O)N[C@H](C(=O)N[C@H](C(=O)N[C@@](C)(CCCCN)C(=O)NCC(=O)NCC(N)=O)C(C)C)C(C)C [compound 113] (H-H[Aib]EGS[αMeF]TSDV[αMeS]S[αMeF]LEK([AEEA-AEEA-γGlu-C18 diacid])EAA[αMeK]E[αMeF]IA[αMeF]VV[αMeK]GG-NH2; N-terminus assumed),,,,,18 pM,17.4 pM
